Assay results taken from ChEMBL document CHEMBL4342421, “Current scenario of tetrazole hybrids for antibacterial activity” (Eur J Med Chem, 2019).

Legend:
Escherichia coli [1] = assay: Antimicrobial activity against Escherichia coli; type: functional
Pseudomonas aeruginosa [2] = assay: Antimicrobial activity against Pseudomonas aeruginosa; type: functional
Staphylococcus aureus [3] = assay: Antimicrobial activity against Staphylococcus aureus; type: functional
Bacillus subtilis [4] = assay: Antimicrobial activity against Bacillus subtilis; type: functional
Escherichia coli [5] = assay: Antimicrobial activity against Escherichia coli assessed as zone of inhibition at 10 ug/ml; type: functional; conditions: read-out: IZ
Candida albicans [6] = assay: Antifungal activity against Candida albicans assessed as zone of inhibition at 10 ug/ml; type: functional; conditions: read-out: IZ
Bacillus subtilis [7] = assay: Antimicrobial activity against Bacillus subtilis assessed as zone of inhibition at 10 ug/ml; type: functional; conditions: read-out: IZ
Pseudomonas aeruginosa [8] = assay: Antimicrobial activity against Pseudomonas aeruginosa assessed as zone of inhibition at 5 mg/ml after 24 to 48 hrs by well diffusion method; type: functional; conditions: read-out: IZ
Escherichia coli [9] = assay: Antimicrobial activity against Escherichia coli assessed as zone of inhibition at 5 mg/ml after 24 to 48 hrs by well diffusion method; type: functional; conditions: read-out: IZ
Lactococcus lactis = assay: Antimicrobial activity against Streptococcus lactis assessed as zone of inhibition at 10 ug/ml; type: functional; conditions: read-out: IZ
Pseudomonas = assay: Antimicrobial activity against Pseudomonas assessed as zone of inhibition at 10 ug/ml; type: functional; conditions: read-out: IZ
Streptomyces = assay: Antimicrobial activity against Streptomyces assessed as zone of inhibition at 10 ug/ml; type: functional; conditions: read-out: IZ
Aspergillus niger [10] = assay: Antifungal activity against Aspergillus niger assessed as zone of inhibition at 10 ug/ml; type: functional; conditions: read-out: IZ
Penicillium = assay: Antifungal activity against Penicillium assessed as zone of inhibition at 10 ug/ml; type: functional; conditions: read-out: IZ
[11] = Antifungal activity against Rhodotorula ingeniosa assessed as zone of inhibition at 10 ug/ml; type: functional; conditions: Sampaiozyma ingeniosa; read-out: IZ
Bacillus subtilis [12] = assay: Antimicrobial activity against Bacillus subtilis NCIM 2250 after 48 hrs by NCCLS protocol based method; type: functional; conditions: NCIM 2250, 48 h
Escherichia coli [13] = assay: Antimicrobial activity against Escherichia coli ATCC 25922 after 48 hrs by NCCLS protocol based method; type: functional; conditions: ATCC 25922, 48 h
Aspergillus niger [14] = assay: Antifungal activity against Aspergillus niger NCIM 545 after 48 hrs by NCCLS protocol based method; type: functional; conditions: NCIM 545, 48 h
Candida albicans [15] = assay: Antifungal activity against Candida albicans MTCC 277 after 48 hrs by NCCLS protocol based method; type: functional; conditions: MTCC 277, 48 h
Staphylococcus aureus [16] = assay: Antimicrobial activity against Staphylococcus aureus assessed as zone of inhibition at 5 mg/ml after 24 to 48 hrs by well diffusion method; type: functional; conditions: read-out: IZ
Bacillus subtilis [17] = assay: Antimicrobial activity against Bacillus subtilis assessed as zone of inhibition at 5 mg/ml after 24 to 48 hrs by well diffusion method; type: functional; conditions: read-out: IZ
Escherichia coli [18] = assay: Antimicrobial activity against Escherichia coli after 24 hrs by agar disk diffusion method; type: functional
Pseudomonas aeruginosa [19] = assay: Antimicrobial activity against Pseudomonas aeruginosa after 24 hrs by agar disk diffusion method; type: functional
Klebsiella pneumoniae [20] = assay: Antimicrobial activity against Klebsiella pneumoniae after 24 hrs by agar disk diffusion method; type: functional
Proteus mirabilis [21] = assay: Antimicrobial activity against Proteus mirabilis after 24 hrs by agar disk diffusion method; type: functional
Klebsiella pneumoniae [22] = assay: Antimicrobial activity against Klebsiella pneumoniae; type: functional
Proteus vulgaris = assay: Antimicrobial activity against Proteus vulgaris; type: functional
Salmonella typhimurium = assay: Antimicrobial activity against Salmonella typhimurium; type: functional, Salmonella enterica subsp. enterica serovar Typhimurium; conditions: Salmonella enterica
Listeria monocytogenes = assay: Antimicrobial activity against Listeria monocytogenes; type: functional
Enterococcus faecalis = assay: Antimicrobial activity against Enterococcus faecalis; type: functional
Candida albicans [23] = assay: Antifungal activity against Candida albicans; type: functional
Nakaseomyces glabratus = assay: Antifungal activity against Candida glabrata; type: functional
Candida tropicalis = assay: Antifungal activity against Candida tropicalis; type: functional
Staphylococcus aureus [24] = assay: Antimicrobial activity against Staphylococcus aureus ATCC 25923 after 24 hrs by disc diffusion method; type: functional; conditions: ATCC 25923, 24 h
Escherichia coli [25] = assay: Antimicrobial activity against Escherichia coli ATCC 25922 after 24 hrs by disc diffusion method; type: functional; conditions: ATCC 25922, 24 h
Pseudomonas aeruginosa [26] = assay: Antimicrobial activity against Pseudomonas aeruginosa ATCC 27853 after 24 hrs by disc diffusion method; type: functional; conditions: ATCC 27853, 24 h
Klebsiella pneumoniae [27] = assay: Antimicrobial activity against Klebsiella pneumoniae after 24 hrs by disc diffusion method; type: functional
Aspergillus flavus = assay: Antifungal activity against Aspergillus flavus NCIM 524 after 3 to 4 days; type: functional
Aspergillus fumigatus = assay: Antifungal activity against Aspergillus fumigatus NCIM 902 after 3 to 4 days; type: functional
Talaromyces marneffei = assay: Antifungal activity against Penicillium marneffei after 3 to 4 days; type: functional
[28] = system: Trichophyton mentagrophytes; assay: Antifungal activity against Trichophyton mentagrophytes after 3 to 4 days; type: functional
Escherichia coli [29] = assay: Antimicrobial activity against Escherichia coli assessed as zone of inhibition at 0.001 mol/cm3; type: functional
Staphylococcus aureus [30] = assay: Antimicrobial activity against Staphylococcus aureus assessed as zone of inhibition at 0.001 mol/cm3; type: functional
Bacillus cereus = assay: Antimicrobial activity against Bacillus cereus assessed as zone of inhibition at 0.001 mol/cm3; type: functional
Pichia kudriavzevii = assay: Antifungal activity against Candida krusei
Streptococcus pneumoniae = assay: Antimicrobial activity against Streptococcus pneumoniae; type: functional
Proteus mirabilis [31] = assay: Antimicrobial activity against Proteus mirabilis; type: functional
Prescottella equi = assay: Antimicrobial activity against Rhodococcus equi; type: functional; conditions: Rhodococcus (subgen. Prescottella) equi
Bacillus thuringiensis = assay: Antimicrobial activity against Bacillus thuringiensis; type: functional
Staphylococcus aureus [32] = assay: Antimicrobial activity against Staphylococcus aureus ATCC 25923 assessed as zone of inhibition at 100 ug/ml after 24 hrs by disc diffusion method; type: functional; conditions: ATCC 25923, 24 h, read-out: IZ

CN[C@@H]1[C@H](O[C@H]2[C@H](O[C@H]3[C@H](O)[C@@H](O)[C@H](N=C(N)N)[C@@H](O)[C@@H]3N=C(N)N)O[C@@H](C)[C@]2(O)C=O)O[C@@H](CO)[C@H](O)[C@H]1O [STREPTOMYCIN]
200 to 400 µg/mL: MIC (Escherichia coli [1]) | MIC (Pseudomonas aeruginosa [2]) | MIC (Staphylococcus aureus [3]) | MIC (Bacillus subtilis [4])
26.9 mm: zone of inhibition at 5000 µg/mL (Escherichia coli [9])
21 to 22 mm: zone of inhibition at 10 µg/mL (Escherichia coli [5]) | zone of inhibition at 10 µg/mL (Candida albicans [6]) | zone of inhibition at 10 µg/mL (Bacillus subtilis [7]) | zone of inhibition at 10 µg/mL (Lactococcus lactis) | zone of inhibition at 10 µg/mL (Pseudomonas) | zone of inhibition at 10 µg/mL (Streptomyces) | zone of inhibition at 10 µg/mL (Aspergillus niger [10]) | zone of inhibition at 10 µg/mL (Penicillium) | zone of inhibition at 10 µg/mL [11]
10 µg/mL: MIC (Bacillus subtilis [12]) | MIC (Escherichia coli [13]) | MIC (Aspergillus niger [14]) | MIC (Candida albicans [15])
20.6 mm: zone of inhibition at 5000 µg/mL (Pseudomonas aeruginosa [8])

Cc1c(-c2cc(-c3ccc(-c4cc(-c5cnn(-c6ccccc6)c5C)n5nnnc5n4)cc3)nc3nnnn23)cnn1-c1ccccc1
8.1 to 9.9 mm: zone of inhibition at 5000 µg/mL (Staphylococcus aureus [16]) | zone of inhibition at 5000 µg/mL (Bacillus subtilis [17]) | zone of inhibition at 5000 µg/mL (Pseudomonas aeruginosa [8]) | zone of inhibition at 5000 µg/mL (Escherichia coli [9])

CCC(C)n1ncn(-c2ccc(N3CCN(c4ccc(OCC5COC(Cn6cncn6)(c6ccc(Cl)cc6Cl)O5)cc4)CC3)cc2)c1=O (stereo unspecified) [ITRACONAZOLE]
6.25 µg/mL: MIC (Escherichia coli [18]) | MIC (Pseudomonas aeruginosa [19]) | MIC (Klebsiella pneumoniae [20]) | MIC (Proteus mirabilis [21])

Cn1nnnc1SCC(=O)Nc1ccc(-c2nc3cc(Cl)c(Cl)cc3n2C)cc1
12.5 to 400 µg/mL: MIC (Escherichia coli [1]) | MIC (Pseudomonas aeruginosa [2]) | MIC (Staphylococcus aureus [3]) | MIC (Bacillus subtilis [4]) | MIC (Klebsiella pneumoniae [22]) | MIC (Proteus vulgaris) | MIC (Salmonella typhimurium) | MIC (Listeria monocytogenes) | MIC (Enterococcus faecalis) | MIC (Candida albicans [23]) | MIC (Nakaseomyces glabratus) | MIC (Candida tropicalis)

c1ccc(-n2nnnc2SCCCSc2nnnn2C2CC2)cc1
6.25 to 50 µg/mL: MIC (Staphylococcus aureus [24]) | MIC (Escherichia coli [25]) | MIC (Pseudomonas aeruginosa [26]) | MIC (Klebsiella pneumoniae [27]) | MIC (Aspergillus flavus) | MIC (Aspergillus fumigatus) | MIC (Talaromyces marneffei) | MIC [28]

CCn1nnnc1SCCCSc1nnnn1-c1ccccc1
6.25 to 50 µg/mL: MIC (Staphylococcus aureus [24]) | MIC (Escherichia coli [25]) | MIC (Pseudomonas aeruginosa [26]) | MIC (Klebsiella pneumoniae [27]) | MIC (Aspergillus flavus) | MIC (Aspergillus fumigatus) | MIC (Talaromyces marneffei) | MIC [28]

Cc1c(C(=O)c2ccccc2)sc(-n2cnnn2)c1C(=O)O
17 - 24 mm: inhibition zone (IZ) (Escherichia coli [29]) | inhibition zone (IZ) (Staphylococcus aureus [30]) | inhibition zone (IZ) (Bacillus cereus)

C[C@H]1COc2c(N3CCN(C)CC3)c(F)cc3c(=O)c(C(=O)O)cn1c23.C[C@H]1COc2c(N3CCN(C)CC3)c(F)cc3c(=O)c(C(=O)O)cn1c23.O [LEVOFLOXACIN]
28 - 30 mm: inhibition zone (IZ) (Escherichia coli [29]) | inhibition zone (IZ) (Staphylococcus aureus [30]) | inhibition zone (IZ) (Bacillus cereus)

Fc1cc2[nH]c(SCc3ccc(-c4ccccc4-c4nnnn4C(c4ccccc4)(c4ccccc4)c4ccccc4)cc3)nc2cc1-n1cncn1
16 to 64 µg/mL: MIC (Escherichia coli [1]) | MIC (Pseudomonas aeruginosa [2]) | MIC (Staphylococcus aureus [3]) | MIC (Bacillus subtilis [4]) | MIC (Candida albicans [23]) | MIC (Nakaseomyces glabratus) | MIC (Candida tropicalis) | MIC (Pichia kudriavzevii)

c1ccc(Cn2nnnc2SCCCSc2nnnn2-c2ccccc2)cc1
6.25 to 50 µg/mL: MIC (Staphylococcus aureus [24]) | MIC (Escherichia coli [25]) | MIC (Pseudomonas aeruginosa [26]) | MIC (Klebsiella pneumoniae [27]) | MIC (Aspergillus flavus) | MIC (Aspergillus fumigatus) | MIC (Talaromyces marneffei) | MIC [28]
6.25 µg/mL: MIC (Escherichia coli [18]) | MIC (Pseudomonas aeruginosa [19]) | MIC (Klebsiella pneumoniae [20]) | MIC (Proteus mirabilis [21])

CC1(C)S[C@@H]2[C@H](NC(=O)Cc3ccccc3)C(=O)N2[C@H]1C(=O)O [PENICILLIN G]
10 to 24 mm: zone of inhibition at 100 µg/mL (Staphylococcus aureus [32])
24.6 mm: zone of inhibition at 5000 µg/mL (Staphylococcus aureus [16])
0.063 to 8 µg/mL: MIC (Bacillus subtilis [4]) | MIC (Proteus vulgaris) | MIC (Salmonella typhimurium) | MIC (Streptococcus pneumoniae) | MIC (Proteus mirabilis [31]) | MIC (Prescottella equi) | MIC (Bacillus thuringiensis)
26.2 mm: zone of inhibition at 5000 µg/mL (Bacillus subtilis [17])
